From patent US9879034B2, “Near-infrared absorption composition, cured film, near-infrared cut filter, solid-state imaging device, infrared sensor, and compound” (FUJIFILM Corporation, priority 2015, dated 2018)

Assays:
[1] = Maximum absorption wavelength of compound solution (UV-1800); format: physicochemical; set-up: unit: nm; conditions: dissolved in tetrahydrofuran, 1 g/L
Procedure: According to the invention, the value of the maximum absorption wavelength is obtained as follows: a compound represented by Formula (1) is dissolved in tetrahydrofuran to prepare a solution with a concentration of 1 g/L, and an absorption spectrum of the solution obtained by dissolving the compound is measured in a wavelength range of 350 nm to 1,200 nm using UV-1800 manufactured by Shimadzu Corporation.
Each compound was dissolved in tetrahydrofuran to prepare a solution with a concentration of 1 g/L. Next, the absorption spectrum of the solution obtained by dissolving each compound was measured using UV-1800 manufactured by Shimadzu Corporation, and a maximum absorption wavelength (λmax) was measured.

[2] = Solubility of compound to solvent at 25° C.; format: physicochemical; conditions: for Solubility Cyclohexanone / Solubility PGMEA / Solubility Toluene: 25° C.; for Solubility PGMEA: propylene glycol monomethyl ether acetate; for Solubility Cyclohexanone / solubility of the compound to each solvent (in words): cyclohexanone; for solubility of the compound to each solvent (in words): PGMEA; for Solubility Toluene / solubility of the compound to each solvent (in words): toluene
Procedure: The solubility of each compound to each solvent (cyclohexanone, propylene glycol monomethyl ether acetate (PGMEA), and toluene) at 25° C. was evaluated based on the following standards.
A: The solubility of the compound to the solvent at 25° C. is 2 mass % or greater.

| Maximum Absorption Wavelength [1] | solubility of the compound to each solvent (in words) [2] | SMILES | Solubility Cyclohexanone [2] | Solubility PGMEA [2] | Solubility Toluene [2] |
| --- | --- | --- | --- | --- | --- |
| 815 |  | CCCCCCCCCC(CCCCCCCCC)B1N=c2/c(=C3\C(=O)C(c4ccc5cccc6c5c4NB(C(CCCCCCCCC)CCCCCCCCC)N6)=C3O)ccc3cccc(c23)N1 [SQ-7] | B (The solubility of the compound to the solvent at 25 °C is 1 mass % to less than 2 mass %.) | B (The solubility of the compound to the solvent at 25 °C is 1 mass % to less than 2 mass %.) | B (The solubility of the compound to the solvent at 25 °C is 1 mass % to less than 2 mass %.) |
| 823 |  | COCCOCCOCCOc1ccc(B2N=c3/c(=C4\C(=O)C(c5ccc6cccc7c6c5NB(c5ccc(OCCOCCOCCOC)cc5)N7)=C4O)ccc4cccc(c34)N2)cc1 [SQ-5] | B (The solubility of the compound to the solvent at 25 °C is 1 mass % to less than 2 mass %.) | A (The solubility of the compound to the solvent at 25 °C is 2 mass % or greater.) | B (The solubility of the compound to the solvent at 25 °C is 1 mass % to less than 2 mass %.) |
| 807 | did not have sufficient solubility | CCC1(CC)N=c2/c(=C3\C(=O)C(c4ccc5cccc6c5c4NC(CC)(CC)N6)=C3O)ccc3cccc(c23)N1 [Compound R-2, reference compound] | C (The solubility of the compound to the solvent at 25 °C is 0.5 mass % to less than 1 mass %.) | C (The solubility of the compound to the solvent at 25 °C is 0.5 mass % to less than 1 mass %.) | B (The solubility of the compound to the solvent at 25 °C is 1 mass % to less than 2 mass %.) |
| 823 |  | CC(C)CCCC(C)CCc1ccc(B2N=c3/c(=C4\C(=O)C(c5ccc6cccc7c6c5NB(c5ccc(CCC(C)CCCC(C)C)cc5)N7)=C4O)ccc4cccc(c34)N2)cc1 (racemic) [SQ-2] | A (The solubility of the compound to the solvent at 25 °C is 2 mass % or greater.) | A (The solubility of the compound to the solvent at 25 °C is 2 mass % or greater.) | A (The solubility of the compound to the solvent at 25 °C is 2 mass % or greater.) |

Second part, the compound before the results:

| SMILES | Maximum Absorption Wavelength [1] | solubility of the compound to each solvent (in words) [2] | Solubility Cyclohexanone [2] | Solubility PGMEA [2] | Solubility Toluene [2] |
| --- | --- | --- | --- | --- | --- |
| C=CCCCCCCCCOc1ccccc1B1N=c2/c(=C3\C(=O)C(c4ccc5cccc6c5c4NB(c4ccccc4OCCCCCCCCC=C)N6)=C3O)ccc3cccc(c23)N1 [SQ-11] | 828 |  | A (The solubility of the compound to the solvent at 25 °C is 2 mass % or greater.) | B (The solubility of the compound to the solvent at 25 °C is 1 mass % to less than 2 mass %.) | A (The solubility of the compound to the solvent at 25 °C is 2 mass % or greater.) |
| CC(C)(C)c1ccc(B2N=c3/c(=C4\C(=O)C(c5ccc6cccc7c6c5NB(c5ccc(C(C)(C)C)cc5)N7)=C4O)ccc4cccc(c34)N2)cc1 [Compound R-1, reference compound] | 827 | did not have sufficient solubility | D (The solubility of the compound to the solvent at 25 °C is less than 0.5 mass %.) | D (The solubility of the compound to the solvent at 25 °C is less than 0.5 mass %.) | D (The solubility of the compound to the solvent at 25 °C is less than 0.5 mass %.) |
| CCCCCCCCCCOc1ccccc1B1N=c2/c(=C3\C(=O)C(c4ccc5cccc6c5c4NB(c4ccccc4OCCCCCCCCCC)N6)=C3O)ccc3cccc(c23)N1 [SQ-6] | 828 |  | B (The solubility of the compound to the solvent at 25 °C is 1 mass % to less than 2 mass %.) | B (The solubility of the compound to the solvent at 25 °C is 1 mass % to less than 2 mass %.) | A (The solubility of the compound to the solvent at 25 °C is 2 mass % or greater.) |
| CCCCCCCCCC(CCCCCCCCC)Oc1ccc(B2N=c3/c(=C4\C(=O)C(c5ccc6cccc7c6c5NB(c5ccc(OC(CCCCCCCCC)CCCCCCCCC)cc5)N7)=C4O)ccc4cccc(c34)N2)cc1 [SQ-4] | 823 |  | B (The solubility of the compound to the solvent at 25 °C is 1 mass % to less than 2 mass %.) | B (The solubility of the compound to the solvent at 25 °C is 1 mass % to less than 2 mass %.) | A (The solubility of the compound to the solvent at 25 °C is 2 mass % or greater.) |
